Measurements reported in publication PMC8162438, “Cancer cell-selective modulation of mitochondrial respiration and metabolism by potent organogold(III) dithiocarbamates” (Chemical Science, 2020).

Test system: MDA-MB-231
Assay: Apoptosis analysis, Annexin V-FITC/PI FACS
Format: cell-based
Conditions: MDA-MB-231, 10 μM, 4 h, extrapolated from Fig. 10B
Source text: Apoptosis is a common cell death pathway for chemotherapeutics which can be characterized by distinct morphological features and biochemical mechanisms.[88,89] Apoptosis occurs normally in healthy cells to maintain a healthy population of cells during aging or development of tissues. Some transition metal-based drugs can trigger apoptosis due to […] of p53 dependant pathway (a tumour suppressor gene).[90,91] Populations of apoptotic cells can be determined by containing cells with Annexin V and PI.[92,93] Cells undergoing apoptosis contain ample amount of phosphatidylserine (PS) which can be bound by Annexin V. The Annexin is then labelled with FITC, a green fluorogenic dye which can be visualized by fluorescence activated cell sorting (FACS). PI is used to stain damaged DNA to distinguish apoptotic from necrotic cells. […]
media. […] The plates were read using a Genios plate reader (λ = 570 nm). […]
Cell Viability of 1a-1e and 2a-2e (Suspended Cell Lines). The cell viability of 2a was determined in K562. […]
10% CO 2. […] To each designated well was then added 20 µL of CellTiter-Glo solution and orbitally shaken for 5 minutes and the luminescence (1000 ms integration and 150 ms gain) acquired on a Genios plate reader. […]

C[N+](C)=C1[S][Au-2]2([S]1)[c]1ccccc1Cc1cccc[n+]12.F[P-](F)(F)(F)(F)F (stereo not shown) [2a]
Increase in apoptotic cells in comparison to control: 36%
